In the supplement of paper PMC10627819:

How the values were obtained:
S. aureus DSM 20231 [1] = assay: fitness (endpoint OD595 vs no drug) (fraction); higher = more growth
Outline: (§1)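 Growth medium was TSB, LB Lennox or CY, and plates were kept at 37 °C. Inoculation was at OD595 0.01 in 384-well plates, at 30 µl per well or 55 µl for S. pneumoniae. OD595 was monitored every 30 min for 14 h and background-subtracted using the first reading. Fitness is the optical density on entering stationary phase divided by the robust mean of no-drug controls, with values capped at 1.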

S. aureus Newman [2] = assay: as above
Outline: as §1

B. subtilis 168 [3] = assay: as above
Outline: as §1

S. aureus DSM 20231 [4] = assay: Bliss interaction score (quartile over a dose matrix) (fitness difference); higher = more antagonism (negative = synergy)
Outline: (§2)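 The Bliss score is observed minus expected fitness, where expected fitness is the product of the single-drug fitness values inferred from the combination data. Fitness is the OD595 at the onset of stationary phase over the plate's robust no-drug mean, capped at 1. Scores are summarised by quartiles over technical, biological and donor/recipient replicates.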

S. aureus Newman [5] = assay: as above
Outline: as §2

S. pneumoniae D39V = assay: as above
Outline: as §2

B. subtilis 168 [6] = assay: as above
Outline: as §2
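Wherever Bliss interaction score (quartile over a dose matrix) is given: first quartile when negative (synergy) and third quartile when positive (antagonism).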
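Wherever fitness (endpoint OD595 vs no drug) is given: OD595 on entry to stationary phase over no-drug wells; at most 1.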

CC[C@H]1OC(=O)[C@H](C)[C@@H](O[C@H]2C[C@@](C)(OC)[C@@H](O)[C@H](C)O2)[C@H](C)[C@@H](O[C@@H]2O[C@H](C)C[C@H](N(C)C)[C@H]2O)[C@](C)(O)C[C@@H](C)CN(C)[C@H](C)[C@@H](O)[C@]1(C)O [Azithromycin] + CN(N=O)C(=O)N[C@@H](C=O)[C@@H](O)[C@H](O)[C@H](O)CO [Streptozotocin]
fitness
Details | partner 0.15 µg/mL | partner 0.3 µg/mL | partner 0.6 µg/mL
B. subtilis 168 [3], first compound 0.25 µg/mL | 0.938 | 0.952 | 0.918
B. subtilis 168 [3], first compound 0.5 µg/mL | 0.897 | 0.902 | 0.842
S. aureus DSM 20231 [1], first compound 0.125 µg/mL | 0.796 | 0.742 | 0.703
S. aureus DSM 20231 [1], first compound 0.25 µg/mL | 0.72 | 0.73 | 0.736
S. aureus DSM 20231 [1], first compound 0.5 µg/mL | 0.37 | 0.293 | –
S. aureus Newman [2], first compound 0.125 µg/mL | 0.81 | 0.707 | 0.564
S. aureus Newman [2], first compound 0.25 µg/mL | 0.811 | 0.76 | 0.657
S. aureus Newman [2], first compound 0.5 µg/mL | 0.576 | 0.5 | 0.367

Details | Bliss interaction score
B. subtilis 168 [6] | 0.0551
S. aureus DSM 20231 [4] | -0.0752
S. aureus Newman [5] | 0.0643
S. pneumoniae D39V | 0.0501

CC[C@H]1OC(=O)[C@H](C)[C@@H](O[C@H]2C[C@@](C)(OC)[C@@H](O)[C@H](C)O2)[C@H](C)[C@@H](O[C@@H]2O[C@H](C)C[C@H](N(C)C)[C@H]2O)[C@](C)(O)C[C@@H](C)CN(C)[C@H](C)[C@@H](O)[C@]1(C)O [Azithromycin] + CN[C@@H]1[C@H](O)[C@H](NC)[C@H]2O[C@@]3(O)C(=O)C[C@@H](C)O[C@H]3O[C@@H]2[C@H]1O [Spectinomycin]
fitness
Details | partner 2 µg/mL | partner 4 µg/mL | partner 8 µg/mL | partner 16 µg/mL
B. subtilis 168 [3], first compound 0.25 µg/mL | 0.918 | 0.895 | 0.815 | –
B. subtilis 168 [3], first compound 0.5 µg/mL | 0.849 | 0.816 | – | –
S. aureus DSM 20231 [1], first compound 0.125 µg/mL | – | 0.856 | 0.774 | 0.755
S. aureus DSM 20231 [1], first compound 0.25 µg/mL | – | 0.788 | 0.771 | 0.644
S. aureus Newman [2], first compound 0.125 µg/mL | – | 0.84 | 0.849 | 0.821
S. aureus Newman [2], first compound 0.25 µg/mL | – | 0.818 | 0.812 | 0.689

fitness, one replicate
Details | first compound 0.125 µg/mL | first compound 0.25 µg/mL | first compound 0.5 µg/mL
S. aureus DSM 20231 [1], partner 32 µg/mL | 0.658 | 0.348 | 0.0388
S. aureus DSM 20231 [1], partner 64 µg/mL | 0.0503 | 0.0326 | 0.0093
S. aureus Newman [2], partner 32 µg/mL | 0.401 | 0.165 | 0.0078
S. aureus Newman [2], partner 64 µg/mL | 0.0378 | 0.0151 | 0.003

Details | Bliss interaction score
B. subtilis 168 [6] | -0.0884
S. aureus DSM 20231 [4] | -0.107
S. aureus Newman [5] | -0.124
S. pneumoniae D39V | -0.0642
